These results are taken from patent US20220340597A1, “HEXAHYDRO-1H-PYRAZINO[1,2-A]PYRAZINE COMPOUNDS FOR THE TREATMENT OF AUTOIMMUNE DISEASE” (Hoffmann-La Roche Inc., priority 2019, published 2022).

The target in one assay is T1, human TLR8 (Homo sapiens, UniProt Q9NR97).
T1 sequence (Q9NR97 27-1041): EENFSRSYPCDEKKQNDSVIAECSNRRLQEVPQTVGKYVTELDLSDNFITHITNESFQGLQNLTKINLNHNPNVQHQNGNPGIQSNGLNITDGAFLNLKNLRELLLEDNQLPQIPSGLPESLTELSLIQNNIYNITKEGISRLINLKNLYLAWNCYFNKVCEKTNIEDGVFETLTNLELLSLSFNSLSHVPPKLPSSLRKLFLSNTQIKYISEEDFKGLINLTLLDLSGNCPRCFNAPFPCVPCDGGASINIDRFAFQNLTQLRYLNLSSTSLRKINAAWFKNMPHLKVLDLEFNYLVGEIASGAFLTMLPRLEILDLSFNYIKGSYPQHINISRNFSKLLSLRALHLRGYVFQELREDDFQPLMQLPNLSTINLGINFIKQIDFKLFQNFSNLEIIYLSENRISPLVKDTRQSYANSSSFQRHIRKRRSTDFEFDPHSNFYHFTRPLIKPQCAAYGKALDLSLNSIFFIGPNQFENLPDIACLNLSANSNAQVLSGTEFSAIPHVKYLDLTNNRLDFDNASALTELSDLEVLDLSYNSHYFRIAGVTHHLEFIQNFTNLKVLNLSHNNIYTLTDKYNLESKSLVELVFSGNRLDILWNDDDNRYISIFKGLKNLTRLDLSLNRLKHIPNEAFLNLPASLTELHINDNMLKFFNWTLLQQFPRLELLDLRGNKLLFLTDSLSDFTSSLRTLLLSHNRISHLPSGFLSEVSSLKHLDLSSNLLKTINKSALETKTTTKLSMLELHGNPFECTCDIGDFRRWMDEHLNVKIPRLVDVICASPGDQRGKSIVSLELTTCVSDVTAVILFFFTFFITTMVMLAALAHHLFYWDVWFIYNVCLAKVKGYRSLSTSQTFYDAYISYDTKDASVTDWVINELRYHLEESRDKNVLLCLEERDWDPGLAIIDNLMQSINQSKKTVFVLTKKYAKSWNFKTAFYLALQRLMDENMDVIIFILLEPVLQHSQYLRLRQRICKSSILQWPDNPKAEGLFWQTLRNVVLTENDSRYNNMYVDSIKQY
Nature of the assay: HEK293-Blue-hTLR-8 cells assay.

The next assay deals with T2, human TLR7 (Homo sapiens, UniProt Q9NYK1).
T2 construct: host or cells: HEK293 (HEK-Blue hTLR7)
T2 sequence (Q9NYK1 27-1049): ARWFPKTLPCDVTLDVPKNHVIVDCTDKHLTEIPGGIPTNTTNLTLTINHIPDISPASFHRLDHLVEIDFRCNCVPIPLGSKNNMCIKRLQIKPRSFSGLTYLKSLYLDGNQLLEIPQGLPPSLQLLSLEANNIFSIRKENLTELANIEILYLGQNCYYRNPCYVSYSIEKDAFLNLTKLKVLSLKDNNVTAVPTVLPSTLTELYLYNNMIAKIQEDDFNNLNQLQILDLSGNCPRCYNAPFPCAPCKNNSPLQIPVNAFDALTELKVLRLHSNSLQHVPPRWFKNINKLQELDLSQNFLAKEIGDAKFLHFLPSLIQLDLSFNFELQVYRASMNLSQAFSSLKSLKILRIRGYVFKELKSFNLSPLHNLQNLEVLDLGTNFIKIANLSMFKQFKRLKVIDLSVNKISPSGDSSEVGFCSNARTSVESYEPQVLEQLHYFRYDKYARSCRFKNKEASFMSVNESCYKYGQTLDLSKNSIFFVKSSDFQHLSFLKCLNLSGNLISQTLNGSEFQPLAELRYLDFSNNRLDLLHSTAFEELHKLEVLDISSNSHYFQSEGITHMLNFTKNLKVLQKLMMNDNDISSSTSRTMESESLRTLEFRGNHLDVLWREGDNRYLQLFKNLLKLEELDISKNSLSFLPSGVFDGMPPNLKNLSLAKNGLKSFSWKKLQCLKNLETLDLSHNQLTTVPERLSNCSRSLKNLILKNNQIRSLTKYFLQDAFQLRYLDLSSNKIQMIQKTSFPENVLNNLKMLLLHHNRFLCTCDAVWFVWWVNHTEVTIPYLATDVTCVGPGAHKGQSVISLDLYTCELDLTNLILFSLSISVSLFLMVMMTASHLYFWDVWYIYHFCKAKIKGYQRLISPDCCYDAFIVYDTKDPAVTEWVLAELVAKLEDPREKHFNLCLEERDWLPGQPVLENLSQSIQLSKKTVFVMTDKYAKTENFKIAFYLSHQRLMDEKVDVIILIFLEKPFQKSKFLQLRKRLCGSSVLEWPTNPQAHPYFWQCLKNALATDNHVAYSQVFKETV
Nature of the assay: HEK293-Blue-hTLR-7 cells assay. It counts as cell-based. The following applies: HEK293-Blue-hTLR7 cells, R848 stimulation, 20 hrs, SEAP reporter; read-out: HEK/hTLR7 IC50.

As for `[2H]c1ccc2c(N3C[C@@H]4CN(Cc5ccc(N[C@H]6CNC[C@H]6F)nc5C)CCN4[C@H](C)C3)ccc(C#N)c2n1` [Example 82, 5-[(4R,9aS)-8-[[6-[[(3S,4R)-4-fluoropyrrolidin-3-yl]amino]-2-methyl-3-pyridyl]methyl]-4-methyl-3,4,6,7,9,9a-hexahydro-JH-pyrazino[1,2-a]pyrazin-2-yl]-2-deuterio-quinoline-8-carbonitrile], the figures for the IC50 on human TLR8 and at human TLR7 were 3 nM and 12 nM, respectively.

As to `[2H]c1ccc2c(N3C[C@@H]4CN(c5ncc(N6C[C@@H](N)[C@H](OC)C6)cc5C)CCN4[C@H](C)C3)ccc(C#N)c2n1` [Example 99, 5-[(4R,9aR)-8-[5-[(3R,4R)-3-amino-4-methoxy-pyrrolidin-1-yl]-3-methyl-2-pyridyl]-4-methyl-3,4,6,7,9,9a-hexahydro-1H-pyrazino[1,2-a]pyrazin-2-yl]-2-deuterio-quinoline-8-carbonitrile], the IC50 on human TLR8 was found to be 2 nM; at human TLR7, 1 nM.

As to `[2H]c1ccc2c(N3C[C@@H]4CN(Cc5ccc(N6C[C@@H]7C[C@H]6CN7)nc5C)CCN4[C@H](C)C3)ccc(C#N)c2n1` [Example 92, 5-[(4R,9aS)-8-[[6-[(1S,4S)-2,5-diazabicyclo[2.2.1]heptan-2-yl]-2-methyl-3-pyridyl]methyl]-4-methyl-3,4,6,7,9,9a-hexahydro-1H-pyrazino[1,2-a]pyrazin-2-yl]-2-deuterio-quinoline-8-carbonitrile], the IC50 on human TLR8 was found to be 9 nM; at human TLR7 it was 6 nM.

Take `C[C@@H]1CN(c2ccc(C#N)c3ncccc23)C[C@@H]2CN(Cc3ccc4c(c3)CNCC4)CCN21` (relative stereo) [Example 1]: the IC50 against human TLR8 came out at 10 nM; at human TLR7 it was 17 nM.

As for `[2H]c1ccc2c(N3C[C@@H]4CN(Cc5ccc(N6CC7CCC(C6)N7)nc5C)CCN4[C@H](C)C3)ccc(C#N)c2n1` [Example 91, 5-[(4R,9aS)-8-[[6-(3,8-diazabicyclo[3.2.1]octan-3-yl)-2-methyl-3-pyridyl]methyl]-4-methyl-3,4,6,7,9,9a-hexahydro-1H-pyrazino[1,2-a]pyrazin-2-yl]-2-deuterio-quinoline-8-carbonitrile], the figures for the IC50 on human TLR8 and on human TLR7 were 20 nM and 15 nM, respectively.

In the case of `[2H]c1ccc2c(N3C[C@@H]4CN(CCc5ccc(N6CC[C@@](C)(N)C6)nc5)CCN4[C@H](C)C3)ccc(C#N)c2n1` [Example 84, 5-[(4R,9aS)-8-[2-[6-[(3R)-3-amino-3-methyl-pyrrolidin-1-yl]-3-pyridyl]ethyl]-4-methyl-3,4,6,7,9,9a-hexahydro-1H-pyrazino[1,2-a]pyrazin-2-yl]-2-deuterio-quinoline-8-carbonitrile], the IC50 turned out to be 19 nM against human TLR8 and 16 nM at human TLR7.

For the molecule `[2H]c1ccc2c(N3C[C@@H]4CN(Cc5ccc(N6CC[C@@](C)(N)C6)nc5C)CCN4[C@H](C)C3)ccc(C#N)c2n1` [Example 81, 5-[(4R,9aS)-8-[[6-[(3R)-3-amino-3-methyl-pyrrolidin-1-yl]-2-methyl-3-pyridyl]methyl]-4-methyl-3,4,6,7,9,9a-hexahydro-1H-pyrazino[1,2-a]pyrazin-2-yl]-2-deuterio-quinoline-8-carbonitrile], the IC50 at human TLR8 worked out at 5 nM; on human TLR7, 16 nM.

On to `[2H]c1ccc2c(N3C[C@@H]4CN(Cc5ccc(N6CC7(CN(C)C7)C6)nc5C)CCN4[C@H](C)C3)ccc(C#N)c2n1` [Example 80, 5-[(4R,9aS)-4-methyl-8-[[2-methyl-6-(6-methyl-2,6-diazaspiro[3.3]heptan-2-yl)-3-pyridyl]methyl]-3,4,6,7,9,9a-hexahydro-1H-pyrazino[1,2-a]pyrazin-2-yl]-2-deuterio-quinoline-8-carbonitrile], for which the figures for the IC50 against human TLR8 and on human TLR7 were 5 nM and 23 nM, respectively.

In the case of `[2H]c1ccc2c(N3C[C@@H]4CN(Cc5ccc(N6CC7CC(C6)N7)nc5C)CCN4[C@H](C)C3)ccc(C#N)c2n1` [Example 90, 5-[(4R,9aS)-8-[[6-(3,6-diazabicyclo[3.1.1]heptan-3-yl)-2-methyl-3-pyridyl]methyl]-4-methyl-3,4,6,7,9,9a-hexahydro-1H-pyrazino[1,2-a]pyrazin-2-yl]-2-deuterio-quinoline-8-carbonitrile], the IC50 against human TLR8 is 8 nM; at human TLR7 it was 13 nM.

For the molecule `C[C@@H]1CN(c2ccc(C#N)c3ncccc23)C[C@@H]2CN(Cc3ccnc(N4CCNCC4)c3)CCN21` (relative stereo) [Example 3], the IC50 at human TLR8 turned out to be 12 nM; at human TLR7, 20 nM.

`[2H]c1ccc2c(N3C[C@@H]4CN(CCc5ccnc(N6C[C@@H](N)[C@@H](F)C6)c5)CCN4[C@H](C)C3)ccc(C#N)c2n1` [Example 89, 5-[(4R,9aS)-8-[2-[2-[(3R,4S)-3-amino-4-fluoro-pyrrolidin-1-yl]-4-pyridyl]ethyl]-4-methyl-3,4,6,7,9,9a-hexahydro-1H-pyrazino[1,2-a]pyrazin-2-yl]-2-deuterio-quinoline-8-carbonitrile]: the figures for the IC50 at human TLR8 and on human TLR7 were 44 nM and 28 nM, respectively.

Regarding `[2H]c1ccc2c(N3C[C@@H]4CN(c5ncc(N6CC[C@@](C)(N)C6)cc5C)CCN4[C@H](C)C3)ccc(C#N)c2n1` [Example 97, 5-[(4R,9aR)-8-[5-[(3R)-3-amino-3-methyl-pyrrolidin-1-yl]-3-methyl-2-pyridyl]-4-methyl-3,4,6,7,9,9a-hexahydro-1H-pyrazino[1,2-a]pyrazin-2-yl]-2-deuterio-quinoline-8-carbonitrile], the figures for the IC50 on human TLR8 and on human TLR7 were 4 nM and 2 nM, respectively.

In the case of `[2H]c1ccc2c(N3C[C@@H]4CN(Cc5nc(N6CCNCC6)ccc5C)CCN4[C@H](C)C3)ccc(C#N)c2n1` [Example 88, 5-[(4R,9aS)-4-methyl-8-[(3-methyl-6-piperazin-1-yl-2-pyridyl)methyl]-3,4,6,7,9,9a-hexahydro-1H-pyrazino[1,2-a]pyrazin-2-yl]-2-deuterio-quinoline-8-carbonitrile], the IC50 at human TLR8 was 10 nM; at human TLR7, 40 nM.

`Cc1nc(N2CCN[C@H](C)C2)ccc1CN1CCN2[C@@H](C1)CN(c1ccc(C#N)c3ncccc13)C[C@H]2C` [Example 86, 5-[(4R,9aS)-4-methyl-8-[[2-methyl-6-[(3R)-3-methylpiperazin-1-yl]-3-pyridyl]methyl]-3,4,6,7,9,9a-hexahydro-1H-pyrazino[1,2-a]pyrazin-2-yl]quinoline-8-carbonitrile]: the IC50 stood at 12 nM on human TLR8 and 15 nM on human TLR7.

With `Cc1nc(N2CCNC[C@@H]2C)ccc1CN1CCN2[C@@H](C1)CN(c1ccc(C#N)c3ncccc13)C[C@H]2C` [Example 85, 5-[(4R,9aS)-4-methyl-8-[[2-methyl-6-[(2S)-2-methylpiperazin-1-yl]-3-pyridyl]methyl]-3,4,6,7,9,9a-hexahydro-1H-pyrazino[1,2-a]pyrazin-2-yl]quinoline-8-carbonitrile], the IC50 came out at 10 nM against human TLR8 and 19 nM on human TLR7.
